Reference: paper PMC10141516 (Pharmaceutics, 2023)

Experiments:
[1] = Compatibility study API-excipient / API-API (total impurities by HPLC); format: physicochemical
Description: The column used was the Gemini C18 column (5.0 μm, 250 mm). […] The mobile phase was filtered through a 0.4 μm polypropylene membrane filter and degassed via sonication. […] The column and sample thermostats were set to 35 °C and 5 °C, respectively. […] The compatibility study was performed using appearance and impurity tests to confirm the interaction between each API and the excipient. Each API was mixed with mannitol, microcrystalline cellulose, lactose, silicified microcrystalline cellulose, calcium hydrogen phosphate anhydrous, pregelatinized starch, sodium starch glycolate, crospovidone, sodium croscarmellose, magnesium stearate, colloidal silicon dioxide, sodium stearyl fumarate, hydroxypropyl cellulose, calcium hydroxide, citric acid, and OPADRY II pink in a 1:1 (w/w) ratio and put into each clear glass vial.

[2] = cited from earlier work
[3] = oral; cited from earlier work
[4] = Apparent solubility test (USP <1236>); conditions: for solubility: 20 °C, thermodynamic from solid
Description: Then, 200 μL of each solvent was added and stirred at 400 rpm. The temperature of the sample was maintained at 20 ± 2 °C. After shaking for 30 s every 5 min, 200 μL of each solvent was added until no particles of the API were visible. The apparent solubility of the two main components was estimated through the point at which all of the API dissolved and became clear.

[5] = Stability study of the APIs in pH buffers (total impurity by HPLC); format: physicochemical
Description: The column used was the Gemini C18 column (5.0 μm, 250 mm). Mobile phase A of the impurity study was prepared with KH2PO4 buffer (v/v, solution adjusted to pH 6.0 with 1 M KOH): acetonitrile: methanol = 85: 10: 5 (v/v/v), and mobile phase B was prepared with 90% acetonitrile. The mobile phase was filtered through a 0.4 μm polypropylene membrane filter and degassed via sonication. The diluted solution was prepared with KH2PO4 buffer (v/v, solution adjusted to pH 6.0 with 1 M KOH) and acetonitrile at a ratio of 7:3 (v/v). The wavelength, flow rate, and injection volume were set to 220 nm, 1.0 mL/min, and 20 μL, respectively. The column and sample thermostats were set to 35 °C and 5 °C, respectively. In the case of the impurity study, the analysis was performed by changing the composition of the mobile phase for 80 min using a gradient elution method for 80 min.
[…] […] We performed a calibration test, and the sample was diluted with a diluted solution and prepared at a concentration of 0.05–1 mg/mL.

N[C@@H](CC(=O)N1CCn2c(nnc2C(F)(F)F)C1)Cc1cc(F)c(F)cc1F.O.O=P(O)(O)O [Sitagliptin, (R)-3-Amino-1-(3-(trifluoromethyl)-5,6-dihydro-[1,2,4]triazolo[4,3-a]pyrazin-7(8H)-yl)-4-(2,4,5-trifluorophenyl)butan-1-one phosphate monohydrate]
Total Impurities ([1]; 20 ± 2 °C/60 ± 5% RH, 2 Weeks): 0.00%
Total Impurities ([1]; 20 ± 2 °C/60 ± 5% RH, 4 Weeks): 0.00%
Total Impurities ([1]; 40 ± 2 °C/75 ± 5% RH, 2 Weeks): 0.00%
Total Impurities ([1]; 40 ± 2 °C/75 ± 5% RH, 4 Weeks): 0.00%
Total Impurities ([1]; Initial): 0.00%
biopharmaceutics classification system (BCS) [2]: Class 1
bioavailability [3]: approximately 87%
solubility ([4]; organic solvent or mixture): < 100 µg/mL
solubility ([4]; pH 1.2, aqueous buffer): 1000 to 10000 µg/mL
solubility ([4]; pH 2, aqueous buffer): 1000 to 10000 µg/mL
solubility ([4]; pH 3, aqueous buffer): 1000 to 10000 µg/mL
solubility ([4]; pH 4, aqueous buffer): 1000 to 10000 µg/mL
solubility ([4]; pH 5, aqueous buffer): 1000 to 10000 µg/mL
solubility ([4]; pH 6, aqueous buffer): 1000 to 10000 µg/mL
solubility ([4]; pH 6.8, aqueous buffer): 1000 to 10000 µg/mL
solubility ([4]; pH 7, aqueous buffer): 1000 to 10000 µg/mL
solubility ([4]; pH 8, aqueous buffer): 1000 to 10000 µg/mL
solubility ([4]; pH 9, aqueous buffer): 1000 to 10000 µg/mL
solubility ([4]; pH 10, aqueous buffer): 100 to 1000 µg/mL
solubility ([4]; pH 11, aqueous buffer): 1000 to 10000 µg/mL
solubility ([4]; pH 12, aqueous buffer): 1000 to 10000 µg/mL
solubility ([4]; water): 1000 to 10000 µg/mL
apparent solubility, USP <1236> term ([4]; other solvents (water, pH 1.2 to 12.0 buffers)): soluble
Total Impurity ([5]; pH 1.2 buffer, 20 ± 2 °C/60 ± 5% RH, 3 Days): 0.01%
Total Impurity ([5]; pH 1.2 buffer, 20 ± 2 °C/60 ± 5% RH, 7 Days): 0.09%
Total Impurity ([5]; pH 1.2 buffer, 40 ± 2 °C/75 ± 5% RH, 3 Days): 0.02%
Total Impurity ([5]; pH 1.2 buffer, 40 ± 2 °C/75 ± 5% RH, 7 Days): 0.14%
Total Impurity ([5]; pH 1.2 buffer, Initial): 0.02%
Total Impurity ([5]; pH 2.0 buffer, 20 ± 2 °C/60 ± 5% RH, 3 Days): 0.03%
Total Impurity ([5]; pH 2.0 buffer, 20 ± 2 °C/60 ± 5% RH, 7 Days): 0.23%
Total Impurity ([5]; pH 2.0 buffer, 40 ± 2 °C/75 ± 5% RH, 3 Days): 0.08%
Total Impurity ([5]; pH 2.0 buffer, 40 ± 2 °C/75 ± 5% RH, 7 Days): 0.59%
Total Impurity ([5]; pH 2.0 buffer, Initial): 0.02%
Total Impurity ([5]; pH 3.0 buffer, 20 ± 2 °C/60 ± 5% RH, 3 Days): 0.08%
Total Impurity ([5]; pH 3.0 buffer, 20 ± 2 °C/60 ± 5% RH, 7 Days): 1.42%
Total Impurity ([5]; pH 3.0 buffer, 40 ± 2 °C/75 ± 5% RH, 3 Days): 0.37%
Total Impurity ([5]; pH 3.0 buffer, 40 ± 2 °C/75 ± 5% RH, 7 Days): 5.64%
Total Impurity ([5]; pH 3.0 buffer, Initial): 0.08%
Total Impurity ([5]; pH 4.0 buffer, 20 ± 2 °C/60 ± 5% RH, 3 Days): 0.00%
Total Impurity ([5]; pH 4.0 buffer, 20 ± 2 °C/60 ± 5% RH, 7 Days): 0.01%
Total Impurity ([5]; pH 4.0 buffer, 40 ± 2 °C/75 ± 5% RH, 3 Days): 0.00%
Total Impurity ([5]; pH 4.0 buffer, 40 ± 2 °C/75 ± 5% RH, 7 Days): 0.02%
Total Impurity ([5]; pH 4.0 buffer, Initial): 0.02%
Total Impurity ([5]; pH 5.0 buffer, 20 ± 2 °C/60 ± 5% RH, 3 Days): 0.00%
Total Impurity ([5]; pH 5.0 buffer, 20 ± 2 °C/60 ± 5% RH, 7 Days): 0.03%
Total Impurity ([5]; pH 5.0 buffer, 40 ± 2 °C/75 ± 5% RH, 3 Days): 0.00%
Total Impurity ([5]; pH 5.0 buffer, 40 ± 2 °C/75 ± 5% RH, 7 Days): 0.03%
Total Impurity ([5]; pH 5.0 buffer, Initial): 0.03%
Total Impurity ([5]; pH 6.0 buffer, 20 ± 2 °C/60 ± 5% RH, 3 Days): 0.00%
Total Impurity ([5]; pH 6.0 buffer, 20 ± 2 °C/60 ± 5% RH, 7 Days): 0.03%
Total Impurity ([5]; pH 6.0 buffer, 40 ± 2 °C/75 ± 5% RH, 3 Days): 0.01%
Total Impurity ([5]; pH 6.0 buffer, 40 ± 2 °C/75 ± 5% RH, 7 Days): 0.06%
Total Impurity ([5]; pH 6.0 buffer, Initial): 0.05%
Total Impurity ([5]; pH 6.8 buffer, 20 ± 2 °C/60 ± 5% RH, 3 Days): 0.01%
Total Impurity ([5]; pH 6.8 buffer, 20 ± 2 °C/60 ± 5% RH, 7 Days): 0.06%
Total Impurity ([5]; pH 6.8 buffer, 40 ± 2 °C/75 ± 5% RH, 3 Days): 0.00%
Total Impurity ([5]; pH 6.8 buffer, 40 ± 2 °C/75 ± 5% RH, 7 Days): 0.03%
Total Impurity ([5]; pH 6.8 buffer, Initial): 0.04%
Total Impurity ([5]; pH 7.0 buffer, 20 ± 2 °C/60 ± 5% RH, 3 Days): 0.00%
Total Impurity ([5]; pH 7.0 buffer, 20 ± 2 °C/60 ± 5% RH, 7 Days): 0.03%
Total Impurity ([5]; pH 7.0 buffer, 40 ± 2 °C/75 ± 5% RH, 3 Days): 0.00%
Total Impurity ([5]; pH 7.0 buffer, 40 ± 2 °C/75 ± 5% RH, 7 Days): 0.03%
Total Impurity ([5]; pH 7.0 buffer, Initial): 0.00%
Total Impurity ([5]; pH 8.0 buffer, 20 ± 2 °C/60 ± 5% RH, 3 Days): 0.01%
Total Impurity ([5]; pH 8.0 buffer, 20 ± 2 °C/60 ± 5% RH, 7 Days): 0.03%
Total Impurity ([5]; pH 8.0 buffer, 40 ± 2 °C/75 ± 5% RH, 3 Days): 0.00%
Total Impurity ([5]; pH 8.0 buffer, 40 ± 2 °C/75 ± 5% RH, 7 Days): 0.03%
Total Impurity ([5]; pH 8.0 buffer, Initial): 0.06%
Total Impurity ([5]; pH 9.0 buffer, 20 ± 2 °C/60 ± 5% RH, 3 Days): 0.00%
Total Impurity ([5]; pH 9.0 buffer, 20 ± 2 °C/60 ± 5% RH, 7 Days): 0.00%
Total Impurity ([5]; pH 9.0 buffer, 40 ± 2 °C/75 ± 5% RH, 3 Days): 0.00%
Total Impurity ([5]; pH 9.0 buffer, 40 ± 2 °C/75 ± 5% RH, 7 Days): 0.03%
Total Impurity ([5]; pH 9.0 buffer, Initial): 0.00%
Total Impurity ([5]; pH 10.0 buffer, 20 ± 2 °C/60 ± 5% RH, 3 Days): 0.00%
Total Impurity ([5]; pH 10.0 buffer, 20 ± 2 °C/60 ± 5% RH, 7 Days): 0.03%
Total Impurity ([5]; pH 10.0 buffer, 40 ± 2 °C/75 ± 5% RH, 3 Days): 0.00%
Total Impurity ([5]; pH 10.0 buffer, 40 ± 2 °C/75 ± 5% RH, 7 Days): 0.03%
Total Impurity ([5]; pH 10.0 buffer, Initial): 0.02%
Total Impurity ([5]; pH 11.0 buffer, 20 ± 2 °C/60 ± 5% RH, 3 Days): 0.00%
Total Impurity ([5]; pH 11.0 buffer, 20 ± 2 °C/60 ± 5% RH, 7 Days): 0.03%
Total Impurity ([5]; pH 11.0 buffer, 40 ± 2 °C/75 ± 5% RH, 3 Days): 0.00%
Total Impurity ([5]; pH 11.0 buffer, 40 ± 2 °C/75 ± 5% RH, 7 Days): 0.04%
Total Impurity ([5]; pH 11.0 buffer, Initial): 0.04%
Total Impurity ([5]; pH 12.0 buffer, 20 ± 2 °C/60 ± 5% RH, 3 Days): 0.00%
Total Impurity ([5]; pH 12.0 buffer, 20 ± 2 °C/60 ± 5% RH, 7 Days): 0.03%
Total Impurity ([5]; pH 12.0 buffer, 40 ± 2 °C/75 ± 5% RH, 3 Days): 0.00%
Total Impurity ([5]; pH 12.0 buffer, 40 ± 2 °C/75 ± 5% RH, 7 Days): 0.03%
Total Impurity ([5]; pH 12.0 buffer, Initial): 0.03%
